Experimental data: publication PMC2984425, “Safety and pharmacokinetics of novel selective vascular endothelial growth factor receptor-2 inhibitor YN968D1 in patients with advanced malignancies” (BMC Cancer, 2010)
Like-named read-outs stand apart in the source and are kept apart here.

Key:
[1] = Plasma pharmacokinetics after single and multiple oral doses (LC-MS/MS, non-compartmental analysis); format: in vivo, human; settings: for Cmax / half-life / AUC(0-t) / Tmax: human, plasma; for AUC(0-t): read-out: AUC0-24, geometric mean; for Tmax: read-out: tmax, median
Protocol: The phase I study was designed in accordance with the Chinese State Food and Drug Administration (SFDA) recommendations (Guidance for Industry, 2005). PK evaluations were to be performed for single-dosing and multiple-dosing of which the dose levels were determined after completion of dose-escalation. Three dose levels (low, intermediate and high dose) for single-dosing and one dose level (the recommended dose for phase II) for multiple-dosing study, between 8 to 12 participants for each dose levels, were required to meet the SFDA guidance. A cross-over design to evaluate the effects of food intake was incorporated into the single-dosing assessment, also meeting the SFDA requirement, but data will be presented separately. […] Whole blood samples (1 ml) were collected at 0 (predose), 0.5, 1, 2, 3, 4, 6, 8, 12, 24, 32, and 48 hours for single-dosing evaluation and 0, 0.5, 1, 2, 3, 4, 6, 8, 12, and 24 hours (before the next dose) on days 1, 6, 28, and 56 for multiple-dosing evaluation. After the last dose on day 56, two additional samples were collected at 32 and 48 hours for multiple-dosing assessment. Plasma was collected from the blood samples following centrifugation, and stored at -80°C until analysis. […] The PK parameters, including area under the plasma concentration-time curve (AUC), maximum plasma concentration (Cmax), time to maximum concentration (tmax), and elimination half-life (t1/2) were determined by non-compartmental analysis using InnaPhase Kinetica 2000™ (InnaPhase Corp., Philadelphia, PA, USA). The linear-logarithmic trapezoidal method was used to calculate the AUC, and t1/2 λz was calculated by linear regression of the terminal slope of the logarithmic plasma concentration-time profile.

advanced solid tumors = assay: Tumor response by RECIST; format: in vivo, human
Protocol: Patients with measurable disease at baseline were evaluated for tumor response according to the Response Evaluation Criteria for Solid Tumors (RECIST). Radiographic studies (CT scan or MRI) for disease assessment were conducted at baseline and every 2 cycles (8 weeks) thereafter. The best overall response was reported. Disease control rate was defined as the percentage of patients with complete response (CR), partial response (PR), and stable disease (SD) for at least 8 weeks. The duration of overall response was defined as the period from the initial measurement of complete response (CR) or partial response (PR), whichever occurred first, to the first date of documented disease recurrence or progression. The same method and techniques of assessment were used to characterize each identified and reported lesion at baseline and at subsequent evaluations.

[2] = tested on: patients with advanced solid tumors; assay: Phase I dose escalation: MTD and DLT of oral once-daily apatinib; format: in vivo
Protocol: The phase I study was designed in accordance with the Chinese State Food and Drug Administration (SFDA) recommendations (Guidance for Industry, 2005). PK evaluations were to be performed for single-dosing and multiple-dosing of which the dose levels were determined after completion of dose-escalation. Three dose levels (low, intermediate and high dose) for single-dosing and one dose level (the recommended dose for phase II) for multiple-dosing study, between 8 to 12 participants for each dose levels, were required to meet the SFDA guidance. A cross-over design to evaluate the effects of food intake was incorporated into the single-dosing assessment, also meeting the SFDA requirement, but data will be presented separately.
Apatinib was provided by Advenchen Laboratories, LLC (Northridge, CA, USA) as capsule to be administered orally daily. A safe starting dose was determined in accordance with SFDA recommendations (Guidance for Industry 2005) following a previously established maximum-tolerated dose (MTD) in dogs for YN968D1 of above 30 mg/kg. Thus, in compliance with the SFDA's recommendation, the starting dose was determined to be 250 mg/day, corresponding to one-fourth of the MTD in dogs. (ClinicalTrials.gov number: NCT00633490).
Dose-escalation cohorts enrolled three to six patients. Intrapatient dose escalation was not allowed. […]

VEGFR-2 = settings: no reference given; read-out: IC50, inhibitory effect on VEGFR-2; cited from earlier work
dogs = settings: previously established; cited from earlier work
[3] = po, 500 mg, single oral dose 500 mg, n = 8
[4] = po, 750 mg, multiple oral dose of 750 mg, Day 1, n = 11
[5] = po, 750 mg, multiple oral dose of 750 mg, Day 6, n = 11
[6] = po, 750 mg, multiple oral dose of 750 mg, Day 28, n = 11
[7] = po, 750 mg, multiple oral dose of 750 mg, Day 56, n = 11
[8] = po, 750 mg, single oral dose 750 mg, n = 12
[9] = po, 850 mg, single oral dose 850 mg, n = 8

**Q.** Which results are given for `N#CC1(c2ccc(NC(=O)c3cccnc3NCc3ccncc3)cc2)CCCC1` [apatinib]?
**A.** time to steady-state conditions ([1]; 750 mg once daily, multiple dosing): ≤ 6 days; Cmax ([1]; oral, 750 mg, after a single dose of 750 mg, read-out: Cmax values, variation between patients): 0.926 to 4.62 µg/mL; half-life ([1]; oral, constant over the dose levels 500-850 mg, read-out: elimination half-life of the terminal phase (t1/2 λz) (converted)): 9 h; AUC(0-t) [1, 3]: 11.3 µg·h/mL; Cmax ([1]; po, 500 mg, single oral dose 500 mg, n = 8, read-out: Cmax, geometric mean): 1.52 µg/mL; half-life ([1]; po, 500 mg, single oral dose 500 mg, n = 8, read-out: t1/2λz, mean (converted)): 8.1 h; Tmax [1, 3]: 3.5 h; AUC(0-t) [1, 4]: 19.4 µg·h/mL; Cmax ([1]; po, 750 mg, multiple oral dose of 750 mg, Day 1, n = 11, read-out: Cmax, geometric mean): 2.42 µg/mL; half-life ([1]; po, 750 mg, multiple oral dose of 750 mg, Day 1, n = 11, read-out: t1/2λz, mean (converted)): 8.9 h; Tmax [1, 4]: 3 h; AUC(0-t) [1, 5]: 25.4 µg·h/mL; Cmax ([1]; po, 750 mg, multiple oral dose of 750 mg, Day 6, n = 11, read-out: Cmax, geometric mean): 2.55 µg/mL; half-life ([1]; po, 750 mg, multiple oral dose of 750 mg, Day 6, n = 11, read-out: t1/2λz, mean (converted)): 11 h; Tmax [1, 5]: 4 h; AUC(0-t) [1, 6]: 19.9 µg·h/mL; Cmax ([1]; po, 750 mg, multiple oral dose of 750 mg, Day 28, n = 11, read-out: Cmax, geometric mean): 2.21 µg/mL; half-life ([1]; po, 750 mg, multiple oral dose of 750 mg, Day 28, n = 11, read-out: t1/2λz, mean (converted)): 11.3 h; Tmax [1, 6]: 4 h; AUC(0-t) [1, 7]: 15.6 µg·h/mL; Cmax ([1]; po, 750 mg, multiple oral dose of 750 mg, Day 56, n = 11, read-out: Cmax, geometric mean): 1.85 µg/mL; half-life ([1]; po, 750 mg, multiple oral dose of 750 mg, Day 56, n = 11, read-out: t1/2λz, mean (converted)): 8.3 h; Tmax [1, 7]: 3 h; AUC(0-t) [1, 8]: 18.2 µg·h/mL; Cmax ([1]; po, 750 mg, single oral dose 750 mg, n = 12, read-out: Cmax, geometric mean): 2.38 µg/mL; half-life ([1]; po, 750 mg, single oral dose 750 mg, n = 12, read-out: t1/2λz, mean (converted)): 9 h; Tmax [1, 8]: 3 h; AUC(0-t) [1, 9]: 22 µg·h/mL; Cmax ([1]; po, 850 mg, single oral dose 850 mg, n = 8, read-out: Cmax, geometric mean): 2.83 µg/mL; half-life ([1]; po, 850 mg, single oral dose 850 mg, n = 8, read-out: t1/2λz, mean (converted)): 9.1 h; Tmax [1, 9]: 4 h; CR, evaluable patients (advanced solid tumors; 250 mg cohort): 0; Disease control (%) CR+PR+SD (advanced solid tumors; 250 mg cohort): 66.7%; Disease control CR+PR+SD, patients (advanced solid tumors; 250 mg cohort): 2; PD, evaluable patients (advanced solid tumors; 250 mg cohort): 1; PR, evaluable patients (advanced solid tumors; 250 mg cohort): 1; CR, evaluable patients (advanced solid tumors; 500 mg cohort): 0; Disease control (%) CR+PR+SD (advanced solid tumors; 500 mg cohort): 66.7%; Disease control CR+PR+SD, patients (advanced solid tumors; 500 mg cohort): 6; PD, evaluable patients (advanced solid tumors; 500 mg cohort): 3; PR, evaluable patients (advanced solid tumors; 500 mg cohort): 2; CR, evaluable patients (advanced solid tumors; 750 mg cohort): 0; Disease control (%) CR+PR+SD (advanced solid tumors; 750 mg cohort): 100%; Disease control CR+PR+SD, patients (advanced solid tumors; 750 mg cohort): 11; PD, evaluable patients (advanced solid tumors; 750 mg cohort): 0; PR, evaluable patients (advanced solid tumors; 750 mg cohort): 2; CR, evaluable patients (advanced solid tumors; 850 mg cohort): 0; Disease control (%) CR+PR+SD (advanced solid tumors; 850 mg cohort): 90.9%; Disease control CR+PR+SD, patients (advanced solid tumors; 850 mg cohort): 10; PD, evaluable patients (advanced solid tumors; 850 mg cohort): 1; PR, evaluable patients (advanced solid tumors; 850 mg cohort): 2; CR, evaluable patients (advanced solid tumors; 1000 mg cohort): 0; Disease control (%) CR+PR+SD (advanced solid tumors; 1000 mg cohort): 66.7%; Disease control CR+PR+SD, patients (advanced solid tumors; 1000 mg cohort): 2; PD, evaluable patients (advanced solid tumors; 1000 mg cohort): 1; PR, evaluable patients (advanced solid tumors; 1000 mg cohort): 0; patients who achieved PR (advanced solid tumors; 22 assessable patients with gastric and colorectal cancer): 4; Disease control rate (advanced solid tumors; 22 assessable patients with gastric and colorectal cancer (n = 18)): 81%; CR, evaluable patients (advanced solid tumors; Total, n = 37): 0; Disease control CR+PR+SD, patients (advanced solid tumors; Total, n = 37): 31; PD, evaluable patients (advanced solid tumors; Total, n = 37): 6; Disease control (%) CR+PR+SD, disease control rate (advanced solid tumors; Total, n = 37, at 8 weeks): 83.8%; Duration of PR (advanced solid tumors; one GIST patient who failed imatinib): 24 months; PR, % of evaluable patients (advanced solid tumors; thirty-seven evaluable patients): 18.9%; recommended (phase II) dose ([2]; human, in vivo, 4 weeks): 750 mg; maximum tolerated dose (MTD) ([2]; oral, once daily, patients): 850 mg; IC50 (VEGFR-2): 2.43 nM; maximum-tolerated dose (MTD) in dogs (dogs): above 30 mg/kg
